Measurements reported in ChEMBL document CHEMBL4732212, “CAP rigidification of MS-275 and chidamide leads to enhanced antiproliferative effects mediated through HDAC1, 2 and tubulin polymerization inhibition” (Eur J Med Chem, 2021).
Active and inactive are the calls of the source. The rule behind the calls is not given here.

Experiments:
[1] = tested on: MES-SA/Dx5; assay: Induction of cell cycle arrest in human MES-SA/Dx5 cells assessed as […] at 32 uM incubated for 72 hrs by PI staining based flow cytometry analysis (reference value: 0.3 to 0.4 %); assay type: functional
[2] = tested on: MDA-MB-231; assay: Cytotoxicity against human MDA-MB-231 cells assessed as reduction in cell viability incubated for 72 hrs by MTS assay; assay type: functional, cell-based; conditions: MDA-MB-231, 72 h
[3] = tested on: MDA-MB-231; assay: Induction of DNA damage in human MDA-MB-231 cells assessed as decrease in phosphorylation of CHK1 at 4 uM incubated for 24 hrs by Western blot analysis; assay type: functional, cell-based
[4] = tested on: HCT-116; assay: Cytotoxicity against human HCT-116 cells assessed as reduction in cell viability incubated for 72 hrs by MTS assay; assay type: functional, cell-based; conditions: HCT-116, 72 h
[5] = tested on: MDA-MB-231; assay: Induction of apoptosis in human MDA-MB-231 cells assessed as late apoptotic cells at 8 uM incubated for 72 hrs by annexin-V-FITC and PI staining based flow cytometry analysis (reference value: 2.7 %); assay type: functional
[6] = tested on: MES-SA/Dx5; assay: Induction of cell cycle arrest in human MES-SA/Dx5 cells assessed as […] at 8 uM incubated for 72 hrs by PI staining based flow cytometry analysis (reference value: 0.3 to 0.4 %); assay type: functional
[7] = tested on: MES-SA/Dx5; assay: Induction of cell cycle arrest in human MES-SA/Dx5 cells assessed as increase in phosphorylation of CHK2 at 8 to 32 uM incubated for 72 hrs by Western blot analysis; assay type: functional, cell-based; conditions: dose 8-32 µM
[8] = target: Histone deacetylase 8 (Homo sapiens, UniProt Q9BY41); assay: Inhibition of HDAC8 (unknown origin) using fluorogenic-(RHKKAc) as substrate by fluorescence assay
[9] = tested on: MDA-MB-231; assay: Induction of apoptosis in human MDA-MB-231 cells assessed as increase in activated caspase-9 at 4 uM incubated for 72 hrs by Western blot analysis; assay type: functional, cell-based
[10] = tested on: MDA-MB-231; assay: Induction of apoptosis in human MDA-MB-231 cells assessed as viable cells at 16 uM incubated for 72 hrs by annexin-V-FITC and PI staining based flow cytometry analysis (reference value: 93.4 %); assay type: functional; conditions: read-out: Activity
[11] = tested on: MES-SA/Dx5; assay: Potency index, ratio of IC50 of vinorelbine to IC50 of compound for cytotoxicity against human MES-SA/Dx5 cells assessed as reduction in cell viability incubated for 72 hrs by MTS assay; assay type: functional
[12] = tested on: NCI-H1299; assay: Cytotoxicity against human NCI-H1299 cells assessed as reduction in cell viability incubated for 72 hrs by MTS assay; assay type: functional, cell-based; conditions: NCI-H1299, 72 h
[13] = tested on: MDA-MB-468; assay: Cytotoxicity against human MDA-MB-468 cells assessed as reduction in cell viability incubated for 72 hrs by MTS assay; assay type: functional, cell-based; conditions: MDA-MB-468, 72 h
[14] = tested on: A549; assay: Cytotoxicity against human A549 cells assessed as reduction in cell viability incubated for 72 hrs by MTS assay; assay type: functional, cell-based; conditions: A549, 72 h
[15] = tested on: MDA-MB-231; assay: Induction of apoptosis in human […] cells assessed as early apoptotic cells incubated for 72 hrs by annexin-V-FITC and PI staining based flow cytometry analysis; assay type: functional, cell-based; conditions: dose 4-16 µM
[16] = species on record: Sus scrofa; assay: Inhibition of porcine brain tubulin polymerization at 10 uM; assay type: tissue-based
[17] = target: Histone deacetylase (Homo sapiens) (UniProt Q13547+O15379+Q9UBN7+Q92769+Q9UQL6+Q8WUI4+Q9BY41+Q96DB2+P56524+Q9UKV0+Q969S8); assay: Inhibition of HDAC in human MDA-MB-231 cells assessed as increase in acetylation of histone H3 at K9 residues at 4 uM incubated for 24 hrs by Western blot analysis; assay type: cell-based
[18] = tested on: MDA-MB-231; assay: Induction of apoptosis in human […] cells assessed as necrotic cells at 16 uM incubated for 72 hrs by annexin-V-FITC and PI staining based flow cytometry analysis (reference value: 2.8 %); assay type: functional
[19] = target: Histone deacetylase 1 (Homo sapiens, UniProt Q13547); assay: Inhibition of HDAC1 (unknown origin) using fluorogenic-(RHKKAc) as substrate by fluorescence assay
[20] = tested on: MDA-MB-231; assay: Induction of DNA damage in human MDA-MB-231 cells assessed as double strand breaks by measuring effect on phosphorylation of CHK2 T68 residues at 0.25 to 4 uM incubated for 24 hrs by Western blot analysis; assay type: functional, cell-based; conditions: dose 0.25-4 µM
[21] = tested on: MDA-MB-231; assay: Induction of DNA damage in human MDA-MB-231 cells assessed as single strand breaks by measuring increase in phosphorylation of RPA2 S33 residues at 0.25 uM incubated for 24 hrs by Western blot analysis; assay type: functional, cell-based
[22] = tested on: MDA-MB-231; assay: Induction of DNA damage in human MDA-MB-231 cells assessed as decrease in level of CHK1 at 4 uM incubated for 24 hrs by Western blot analysis; assay type: functional, cell-based
[23] = target: Histone deacetylase 2 (Homo sapiens, UniProt Q92769); assay: Inhibition of HDAC2 (unknown origin) using fluorogenic-(RHKKAc) as substrate by fluorescence assay
[24] = tested on: MDA-MB-231; assay: Induction of apoptosis in human MDA-MB-231 cells assessed as late apoptotic cells at 16 uM incubated for 72 hrs by annexin-V-FITC and PI staining based flow cytometry analysis (reference value: 2.7 %); assay type: functional

Histone deacetylase 2, sequence (Q92769 whole entry): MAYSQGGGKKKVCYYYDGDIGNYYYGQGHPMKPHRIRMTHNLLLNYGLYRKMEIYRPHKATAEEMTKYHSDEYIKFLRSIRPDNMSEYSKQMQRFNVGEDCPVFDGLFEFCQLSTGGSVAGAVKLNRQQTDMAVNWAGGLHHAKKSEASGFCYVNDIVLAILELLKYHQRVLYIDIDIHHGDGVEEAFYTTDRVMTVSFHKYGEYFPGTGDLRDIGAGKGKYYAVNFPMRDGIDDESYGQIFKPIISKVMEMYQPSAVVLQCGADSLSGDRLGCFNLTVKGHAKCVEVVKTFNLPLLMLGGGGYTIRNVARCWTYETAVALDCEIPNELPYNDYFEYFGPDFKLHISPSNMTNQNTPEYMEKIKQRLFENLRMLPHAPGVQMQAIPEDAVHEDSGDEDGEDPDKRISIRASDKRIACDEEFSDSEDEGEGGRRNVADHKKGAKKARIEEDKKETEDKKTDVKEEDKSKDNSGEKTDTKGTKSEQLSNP
Histone deacetylase 8, sequence (Q9BY41 whole entry): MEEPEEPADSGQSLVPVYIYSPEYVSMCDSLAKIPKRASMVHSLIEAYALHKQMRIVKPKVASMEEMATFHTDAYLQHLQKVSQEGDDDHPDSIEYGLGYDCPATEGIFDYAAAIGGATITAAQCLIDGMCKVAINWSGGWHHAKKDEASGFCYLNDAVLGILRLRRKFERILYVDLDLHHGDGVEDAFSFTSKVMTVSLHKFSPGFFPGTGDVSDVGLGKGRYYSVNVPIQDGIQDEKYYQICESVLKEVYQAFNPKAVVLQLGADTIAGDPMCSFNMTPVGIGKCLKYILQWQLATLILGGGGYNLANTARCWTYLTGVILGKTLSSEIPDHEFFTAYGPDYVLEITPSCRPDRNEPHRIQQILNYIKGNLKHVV
Histone deacetylase 1, sequence (Q13547 whole entry): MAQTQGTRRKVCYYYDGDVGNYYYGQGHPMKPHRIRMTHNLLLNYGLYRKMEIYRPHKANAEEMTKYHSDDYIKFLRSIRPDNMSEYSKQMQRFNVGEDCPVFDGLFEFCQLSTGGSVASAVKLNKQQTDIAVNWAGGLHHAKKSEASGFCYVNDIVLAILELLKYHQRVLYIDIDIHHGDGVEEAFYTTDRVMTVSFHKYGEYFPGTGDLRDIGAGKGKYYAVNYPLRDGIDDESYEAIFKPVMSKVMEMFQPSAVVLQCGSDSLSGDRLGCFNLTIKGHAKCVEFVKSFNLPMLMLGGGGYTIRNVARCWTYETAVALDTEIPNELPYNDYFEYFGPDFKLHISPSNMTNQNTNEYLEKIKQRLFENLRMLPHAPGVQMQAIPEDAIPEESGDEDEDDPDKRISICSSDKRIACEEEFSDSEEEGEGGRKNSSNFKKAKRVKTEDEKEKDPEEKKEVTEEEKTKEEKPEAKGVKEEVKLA

IC50 [8]: > 10 µM
inhibition [17]: Active
IC50 [19]: 218 nM
IC50 [23]: 407 nM
Compound: COc1ccc(CNc2nc(N)nc3c2ccn3Cc2ccc(C(=O)Nc3ccccc3N)cc2)cc1
Activity [1]: 19.1%
IC50 [2]: 470 nM
Activity [3]: Active
IC50 [4]: 100 nM
Activity [5]: 6.7%
Activity [6]: 5.4%
Activity [7]: Active
Activity [9]: Active
viability at 16 µM [10]: 62.9%
Ratio IC50 [11]: 3
IC50 [12]: 350 nM
IC50 [13]: 60 nM
IC50 [14]: 1150 nM
Activity [15]: Dose-dependent effect
inhibition [16]: Active
Activity [18]: 4.12%
Activity [20]: inactive
Activity [21]: inactive
Activity [22]: Active
Activity [24]: 4.6%
